# According to US9932314B2, “Pyrazole compounds and their use as T-type calcium channel blockers” (IDORSIA PHARMACEUTICALS LTD, priority 2015, dated 2018):
# Target: T1, voltage-dependent T-type calcium channel subunit alpha-1G (Cav3.2) (Homo sapiens, UniProt O95180)
# T1 construct: expressed in transfected cells; host or cells: HEK293
# Experiment: FLIPR calcium flux assay, HEK293 cells recombinantly expressing Cav3.2
# Type: cell-based
# Settings: Cav3.2-channel, Fluo-4-AM, 3 min incubation, stimulation with 10 mM CaCl2
# Outline: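 Calcium influx was triggered by adding CaCl2 to 10 mM final, 3 min after compounds in tetraethylammonium-based buffer, pH 7.2, reached Fluo-4-AM-loaded recombinant HEK293 cells. The integrated kinetic fluorescence signal per concentration gave concentration-response curves by non-linear sigmoidal regression.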
# T1 sequence (O95180 whole entry): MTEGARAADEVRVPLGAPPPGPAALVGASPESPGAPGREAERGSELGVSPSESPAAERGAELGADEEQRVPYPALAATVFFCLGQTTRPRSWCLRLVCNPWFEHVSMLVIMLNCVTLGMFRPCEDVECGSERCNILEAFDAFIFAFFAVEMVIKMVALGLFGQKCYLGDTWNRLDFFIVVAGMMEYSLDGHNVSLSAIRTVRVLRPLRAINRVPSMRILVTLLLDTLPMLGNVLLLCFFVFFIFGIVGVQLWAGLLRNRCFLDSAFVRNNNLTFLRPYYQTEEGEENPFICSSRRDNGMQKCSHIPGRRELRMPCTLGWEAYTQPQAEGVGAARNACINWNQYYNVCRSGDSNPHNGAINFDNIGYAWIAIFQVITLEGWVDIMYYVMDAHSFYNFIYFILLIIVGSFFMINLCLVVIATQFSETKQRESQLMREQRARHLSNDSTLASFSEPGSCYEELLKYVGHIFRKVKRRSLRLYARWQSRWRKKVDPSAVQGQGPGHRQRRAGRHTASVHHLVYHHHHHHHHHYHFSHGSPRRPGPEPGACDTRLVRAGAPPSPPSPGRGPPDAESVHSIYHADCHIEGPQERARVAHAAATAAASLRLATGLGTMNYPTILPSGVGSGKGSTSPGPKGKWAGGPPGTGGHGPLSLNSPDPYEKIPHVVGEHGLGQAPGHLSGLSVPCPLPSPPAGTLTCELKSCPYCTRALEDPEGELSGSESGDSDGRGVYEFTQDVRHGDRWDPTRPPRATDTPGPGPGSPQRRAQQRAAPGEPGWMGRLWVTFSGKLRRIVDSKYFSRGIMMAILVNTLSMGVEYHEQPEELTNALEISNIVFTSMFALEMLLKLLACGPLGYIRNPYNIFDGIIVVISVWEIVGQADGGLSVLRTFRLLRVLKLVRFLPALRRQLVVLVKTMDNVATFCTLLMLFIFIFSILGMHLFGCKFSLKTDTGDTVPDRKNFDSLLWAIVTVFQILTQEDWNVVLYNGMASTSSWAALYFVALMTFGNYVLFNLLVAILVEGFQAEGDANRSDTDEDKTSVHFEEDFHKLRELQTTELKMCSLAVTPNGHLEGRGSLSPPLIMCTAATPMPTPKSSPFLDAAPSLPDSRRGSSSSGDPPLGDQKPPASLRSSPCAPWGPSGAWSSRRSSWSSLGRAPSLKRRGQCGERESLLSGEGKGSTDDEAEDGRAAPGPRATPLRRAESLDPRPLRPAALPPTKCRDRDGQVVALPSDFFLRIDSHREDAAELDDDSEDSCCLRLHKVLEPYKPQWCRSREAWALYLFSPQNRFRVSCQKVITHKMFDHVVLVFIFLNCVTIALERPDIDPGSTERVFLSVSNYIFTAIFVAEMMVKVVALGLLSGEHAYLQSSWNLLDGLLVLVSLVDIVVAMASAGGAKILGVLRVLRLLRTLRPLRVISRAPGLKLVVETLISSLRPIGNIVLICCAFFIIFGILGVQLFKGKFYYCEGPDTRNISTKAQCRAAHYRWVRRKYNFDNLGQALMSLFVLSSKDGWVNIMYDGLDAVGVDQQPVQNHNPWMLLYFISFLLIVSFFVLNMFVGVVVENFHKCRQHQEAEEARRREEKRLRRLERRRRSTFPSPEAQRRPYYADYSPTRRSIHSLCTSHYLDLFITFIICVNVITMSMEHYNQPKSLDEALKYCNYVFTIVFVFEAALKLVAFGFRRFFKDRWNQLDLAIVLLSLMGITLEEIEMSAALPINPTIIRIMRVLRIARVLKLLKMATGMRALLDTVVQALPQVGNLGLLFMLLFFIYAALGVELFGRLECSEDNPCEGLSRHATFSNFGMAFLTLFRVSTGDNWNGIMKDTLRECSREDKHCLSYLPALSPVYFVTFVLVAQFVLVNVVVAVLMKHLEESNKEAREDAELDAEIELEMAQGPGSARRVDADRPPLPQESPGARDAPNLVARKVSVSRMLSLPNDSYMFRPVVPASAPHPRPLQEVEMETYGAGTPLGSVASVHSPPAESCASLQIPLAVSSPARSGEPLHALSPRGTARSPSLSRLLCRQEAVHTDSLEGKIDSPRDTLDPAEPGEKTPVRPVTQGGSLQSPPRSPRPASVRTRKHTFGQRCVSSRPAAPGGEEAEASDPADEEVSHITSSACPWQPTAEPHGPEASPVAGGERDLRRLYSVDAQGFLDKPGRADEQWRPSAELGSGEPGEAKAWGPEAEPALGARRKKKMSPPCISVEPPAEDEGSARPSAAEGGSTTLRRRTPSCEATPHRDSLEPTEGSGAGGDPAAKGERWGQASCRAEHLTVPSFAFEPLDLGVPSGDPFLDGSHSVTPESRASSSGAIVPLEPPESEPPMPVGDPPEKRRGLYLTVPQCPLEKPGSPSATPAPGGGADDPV
row,Structure (SMILES),IC50 [nM]
1,"Cc1cc(CC(=O)Nc2ccn(Cc3cc(C#N)c(F)cn3)n2)cc(C)c1OCC(F)(F)F [Example 416, N-[1-(4-Cyano-5-fluoro-pyridin-2-ylmethyl)-1H-pyrazol-3-yl]-2-[3,5-dimethyl-4-(2,2,2-trifluoro-ethoxy)-phenyl]-acetamide]",17
2,"Cn1ccc2cc(CC(=O)Nc3ccn(Cc4ccc(F)c(F)c4)n3)ccc21 [Example 220, N-[1-(3,4-Difluoro-benzyl)-1H-pyrazol-3-yl]-2-(1-methyl-1H-indol-5-yl)-acetamide]",3.1
3,"COc1ccc(Cn2ccc(NC(=O)Cc3ccc(N4CCC4)cc3)n2)cc1 [Example 55, 2-(4-Azetidin-1-yl-phenyl)-N-[1-(4-methoxy-benzyl)-1H-pyrazol-3-yl]-acetamide]",33
4,"CC(C)(C)c1ccc(CC(=O)Nc2ccn(Cc3ccc(C#N)cc3)n2)cc1 [Example 271, 2-(4-tert-Butyl-phenyl)-N-[1-(4-cyano-benzyl)-1H-pyrazol-3-yl]-acetamide]",3.4
5,"CCc1ccc(Cn2ccc(NC(=O)Cc3ccc(N(C)C)nc3)n2)cc1 [Example 35, 2-(6-Dimethylamino-pyridin-3-yl)-N-[1-(4-ethyl-benzyl)-1H-pyrazol-3-yl]-acetamide]",43
6,"N#Cc1ccc(Cn2ccc(NC(=O)Cc3ccc(N4CC[C@H](F)C4)nc3)n2)nc1 [Example 152, N-[1-(5-Cyano-pyridin-2-ylmethyl)-1H-pyrazol-3-yl]-2-[6-((S)-3-fluoro-pyrrolidin-1-yl)-pyridin-3-yl]-acetamide]",1160
7,"COc1ccc(Cn2ccc(NC(=O)Cc3ccc(N4CC(F)(F)C4)nc3)n2)cc1 [Example 146, 2-[6-(3,3-Difluoro-azetidin-1-yl)-pyridin-3-yl]-N-[1-(4-methoxy-benzyl)-1H-pyrazol-3-yl]-acetamide]",136
8,"Cc1cc(CC(=O)Nc2ccn(Cc3cc(C#N)c(F)cn3)n2)cnc1OCC(F)(F)F [Example 419, N-[1-(4-Cyano-5-fluoro-pyridin-2-ylmethyl)-1H-pyrazol-3-yl]-2-[5-methyl-6-(2,2,2-trifluoro-ethoxy)-pyridin-3-yl]-acetamide]",9430
9,"CCN(CC)c1ccc(CC(=O)Nc2ccn(Cc3ccc(F)c(F)c3)n2)cc1 [Example 113, 2-(4-Diethylamino-phenyl)-N-[1-(3,4-difluoro-benzyl)-1H-pyrazol-3-yl]-acetamide]",4.8
10,"Cn1ncc2cc(CC(=O)Nc3ccn(Cc4cc(F)c(C#N)c(F)c4)n3)ccc21 [Example 344, N-[1-(4-Cyano-3,5-difluoro-benzyl)-1H-pyrazol-3-yl]-2-(1-methyl-1H-indazol-5-yl)-acetamide]",52
11,"O=C(Cc1ccc(N2CC(F)C2)cc1)Nc1ccn(Cc2ccc(F)c(F)c2)n1 [Example 62, N-[1-(3,4-Difluoro-benzyl)-1H-pyrazol-3-yl]-2-[4-(3-fluoro-azetidin-1-yl)-phenyl]-acetamide]",3.8
12,"CCN(C)c1ccc(CC(=O)Nc2ccn(Cc3ccc(C#N)cn3)n2)cn1 [Example 171, N-[1-(5-Cyano-pyridin-2-ylmethyl)-1H-pyrazol-3-yl]-2-[6-(ethyl-methyl-amino)-pyridin-3-yl]-acetamide]",980
13,"CN(C)c1ccc(CC(=O)Nc2ccn(Cc3ccc(C#N)cn3)n2)cc1 [Example 33, N-[1-(5-Cyano-pyridin-2-ylmethyl)-1H-pyrazol-3-yl]-2-(4-dimethylamino-phenyl)-acetamide]",101
14,"Cc1nc2ccc(CC(=O)Nc3ccn(Cc4ccc(F)cc4)n3)cc2[nH]1 [Example 137, N-[1-(4-Fluoro-benzyl)-1H-pyrazol-3-yl]-2-(2-methyl-3H-benzoimidazol-5-yl)-acetamide]",313
15,"CC(C)c1ccc(CC(=O)Nc2ccn(Cc3ccc(OCC(F)(F)F)cn3)n2)cc1 [Example 93, 2-(4-Isopropyl-phenyl)-N-{1-[5-(2,2,2-trifluoro-ethoxy)-pyridin-2-ylmethyl]-1H-pyrazol-3-yl}-acetamide]",39
16,"Cn1cc(C#N)c2cc(CC(=O)Nc3ccn(Cc4ccc(F)c(C#N)c4)n3)ccc21 [Example 329, N-[1-(3-Cyano-4-fluoro-benzyl)-1H-pyrazol-3-yl]-2-(3-cyano-1-methyl-1H-indol-5-yl)-acetamide]",80
17,"N#Cc1ccc(Cn2ccc(NC(=O)Cc3ccc(C(F)(F)F)cc3)n2)nc1 [Example 338, N-[1-(5-Cyano-pyridin-2-ylmethyl)-1H-pyrazol-3-yl]-2-(4-trifluoromethyl-phenyl)-acetamide]",61
18,"Cc1cc(CC(=O)Nc2ccn(Cc3ccc(F)c(C#N)n3)n2)ccc1OC(F)(F)F [Example 410, N-[1-(6-Cyano-5-fluoro-pyridin-2-ylmethyl)-1H-pyrazol-3-yl]-2-(3-methyl-4-trifluoromethoxy-phenyl)-acetamide]",17
19,"Cc1cc(CC(=O)Nc2ccn(Cc3ccc(C#N)cn3)n2)cc(C)c1OCC(F)(F)F [Example 414, N-[1-(5-Cyano-pyridin-2-ylmethyl)-1H-pyrazol-3-yl]-2-[3,5-dimethyl-4-(2,2,2-trifluoro-ethoxy)-phenyl]-acetamide]",6.4

row,Structure (SMILES),IC50 [nM]
1,"O=C(Cc1ccc(N2CC(F)C2)nc1)Nc1ccn(Cc2ccc(F)c(F)c2)n1 [Example 160, N-[1-(3,4-Difluoro-benzyl)-1H-pyrazol-3-yl]-2-[6-(3-fluoro-azetidin-1-yl)-pyridin-3-yl]-acetamide]",29
2,"CN(CC1CC1)c1ccc(CC(=O)Nc2ccn(Cc3ccc(F)c(F)c3)n2)cn1 [Example 185, 2-[6-(Cyclopropylmethyl-methyl-amino)-pyridin-3-yl]-N-[1-(3,4-difluoro-benzyl)-1H-pyrazol-3-yl]-acetamide]",7.7
3,"N#Cc1ccc(Cn2ccc(NC(=O)Cc3ccc(C4(F)COC4)cc3)n2)cc1 [Example 250, N-[1-(4-Cyano-benzyl)-1H-pyrazol-3-yl]-2-[4-(3-fluoro-oxetan-3-yl)-phenyl]-acetamide]",127
4,"N#Cc1ccc(Cn2ccc(NC(=O)Cc3ccc(C4(C#N)CC4)cc3)n2)nc1 [Example 354, 2-[4-(1-Cyano-cyclopropyl)-phenyl]-N-[1-(5-cyano-pyridin-2-ylmethyl)-1H-pyrazol-3-yl]-acetamide]",248
5,"N#Cc1ccc(Cn2ccc(NC(=O)Cc3ccc(OCC(F)(F)F)c(C4CC4)c3)n2)nc1 [Example 406, N-[1-(5-Cyano-pyridin-2-ylmethyl)-1H-pyrazol-3-yl]-2-[3-cyclopropyl-4-(2,2,2-trifluoro-ethoxy)-phenyl]-acetamide]",15
6,"CC1(COc2ccc(CC(=O)Nc3ccn(Cc4ccc(C#N)cc4)n3)cc2)CC(F)(F)C1 [Example 298, N-[1-(4-Cyano-benzyl)-1H-pyrazol-3-yl]-2-[4-(3,3-difluoro-1-methyl-cyclobutylmethoxy)-phenyl]-acetamide]",43
7,"N#Cc1ccc(Cn2ccc(NC(=O)Cc3ccc(N4CC[C@@H](F)C4)nc3)n2)cc1 [Example 140, N-[1-(4-Cyano-benzyl)-1H-pyrazol-3-yl]-2-[6-((R)-3-fluoro-pyrrolidin-1-yl)-pyridin-3-yl]-acetamide]",176
8,"N#Cc1ccc(Cn2ccc(NC(=O)Cc3ccc(C4(F)COC4)cc3)n2)nc1 [Example 246, N-[1-(5-Cyano-pyridin-2-ylmethyl)-1H-pyrazol-3-yl]-2-[4-(3-fluoro-oxetan-3-yl)-phenyl]-acetamide]",705
9,"CC(C)c1ccc(CC(=O)Nc2ccn(Cc3ccc(N(C)C)cn3)n2)cc1 [Example 107, N-[1-(5-Dimethylamino-pyridin-2-ylmethyl)-1H-pyrazol-3-yl]-2-(4-isopropyl-phenyl)-acetamide]",338
10,"Cn1cc(C#N)c2cc(CC(=O)Nc3ccn(Cc4ccc(C#N)cn4)n3)ccc21 [Example 325, 2-(3-Cyano-1-methyl-1H-indol-5-yl)-N-[1-(5-cyano-pyridin-2-ylmethyl)-1H-pyrazol-3-yl]-acetamide]",893
11,"Cc1cn(C)c2ccc(CC(=O)Nc3ccn(Cc4cc(F)c(C#N)c(F)c4)n3)cc12 [Example 358, N-[1-(4-Cyano-3,5-difluoro-benzyl)-1H-pyrazol-3-yl]-2-(1,3-dimethyl-1H-indol-5-yl)-acetamide]",20
12,"O=C(Cc1ccc(N2CC(F)C2)nc1)Nc1ccn(Cc2ccc(F)cc2)n1 [Example 162, 2-[6-(3-Fluoro-azetidin-1-yl)-pyridin-3-yl]-N-[1-(4-fluoro-benzyl)-1H-pyrazol-3-yl]-acetamide]",64
13,"COC1(c2ccc(CC(=O)Nc3ccn(Cc4cc(F)c(C#N)c(F)c4)n3)cc2)COC1 [Example 359, N-[1-(4-Cyano-3,5-difluoro-benzyl)-1H-pyrazol-3-yl]-2-[4-(3-methoxy-oxetan-3-yl)-phenyl]-acetamide]",212
14,"Cn1ccc2ccc(CC(=O)Nc3ccn(Cc4ccc(C#N)c(F)c4)n3)cc21 [Example 293, N-[1-(4-Cyano-3-fluoro-benzyl)-1H-pyrazol-3-yl]-2-(1-methyl-1H-indol-6-yl)-acetamide]",6.6
15,"CC(C)c1ccc(CC(=O)Nc2ccn(Cc3ccc(F)c(C#N)n3)n2)cc1 [Example 210, N-[1-(6-Cyano-5-fluoro-pyridin-2-ylmethyl)-1H-pyrazol-3-yl]-2-(4-isopropyl-phenyl)-acetamide]",8
16,"N#Cc1ccc(Cn2ccc(NC(=O)Cc3ccc(C4CC4)cc3)n2)nc1 [Example 78, N-[1-(5-Cyano-pyridin-2-ylmethyl)-1H-pyrazol-3-yl]-2-(4-cyclopropyl-phenyl)-acetamide]",275
17,"COc1ccc(Cn2ccc(NC(=O)Cc3ccc(N(C)C)cc3)n2)nc1 [Example 44, 2-(4-Dimethylamino-phenyl)-N-[1-(5-methoxy-pyridin-2-ylmethyl)-1H-pyrazol-3-yl]-acetamide]",372
18,"N#Cc1cc(Cn2ccc(NC(=O)Cc3ccc(C4(C(F)(F)F)CC4)cc3)n2)ccc1F [Example 314, N-[1-(3-Cyano-4-fluoro-benzyl)-1H-pyrazol-3-yl]-2-[4-(1-trifluoromethyl-cyclopropyl)-phenyl]-acetamide]",32
